According to US11547301B2, “Methods for collecting and testing bacteria containing samples from within the gastrointestinal tract” (priority 2016, dated 2023):

Tests used:
human IL-6 = human IL-6 (Homo sapiens, UniProt P05231); conditions: cited from earlier work
[1] = test system: Escherichia coli ATCC 25922; assay: OD (600 nm) of incubated bacterial samples under simulated GI conditions (bile, mucin, pH, yeast), 4 hour incubation; type: cell-based; conditions: Yeast+Amphotericin B
Protocol: (§1) Experiments were performed in order to simulate an ingestible device that contains sterile media that is inoculated with a sample of fluid from the GI tract and incubated in transit. […] The samples were also incubated under conditions of shear forces and temperature that simulate conditions of an ingestible device in transit within the GI tract.
(§2) The assay utilized 50 μL, sample volumes, under shear (110 rpm) and at body temperature (37° C.) over a 4 hour incubation period to simulate transit of an ingestible device within the GI tract. […] Experiments were conducted in quintuplicate.

[2] = test system: Staphylococcus epidermidis ATCC 12228; assay: as above; type: cell-based; conditions: Yeast Amphotericin B
Protocol: as §1, §2

C. albicans = assay: Fungal contamination of incubated OD assay, with or without anti-fungal recovery media; type: cell-based; conditions: TSB containing 2.5 mg/L Amphotericin B
[3] = test system: dermatophytes, yeasts, moulds and other fungi; conditions: cited from earlier work
[4] = test system: Gram-positive and Gram-negative bacteria; conditions: e.g., Escherichia coli, Proteus mirabilis, Pseudomonas aeruginosa, Staphylococcus and Streptococcus species; cited from earlier work
[5] = numerous murine models; cited from earlier work
[6] = test system: Propionibacterium acnes and Staphylococcus epidermidis; conditions: aerobic and anaerobic organisms; cited from earlier work

Sequence of human IL-6 (P05231 30-212): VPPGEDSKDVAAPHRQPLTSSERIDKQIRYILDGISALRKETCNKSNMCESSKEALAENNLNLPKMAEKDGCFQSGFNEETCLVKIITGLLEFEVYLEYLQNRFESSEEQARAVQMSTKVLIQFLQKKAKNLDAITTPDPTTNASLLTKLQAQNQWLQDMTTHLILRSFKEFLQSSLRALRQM

siltuximab: chimeric, human-murine, immunoglobulin (Ig) Gκ mAb that binds and neutralizes human IL-6
binding and neutralization of human IL-6 (human IL-6): high affinity and specificity

C[C@@H]1[C@H](O)[C@@H](C)/C=C/C=C/C=C/C=C/C=C/C=C/C=C/[C@H](O[C@@H]2O[C@H](C)[C@@H](O)[C@H](N)[C@@H]2O)C[C@@H]2O[C@](O)(C[C@@H](O)C[C@@H](O)[C@H](O)CC[C@@H](O)C[C@@H](O)CC(=O)O[C@H]1C)C[C@H](O)[C@H]2C(=O)O [amphotericin B, Amphotericin B]
OD (600 nm) Mean ([1]; EC 10^3 initial concentration): 0.0410 | OD (600 nm) Mean ([1]; EC 10^4 initial concentration): 0.0432 | OD (600 nm) Mean ([1]; EC 10^5 initial concentration): 0.0562 | OD (600 nm) Mean ([1]; EC 10^6 initial concentration): 0.1038 | OD (600 nm) Mean ([1]; EC 10^7 initial concentration): 0.1274 | OD (600 nm) Mean ([2]; SE 10^3 initial concentration): 0.0425 | OD (600 nm) Mean ([2]; SE 10^4 initial concentration): 0.0437 | OD (600 nm) Mean ([2]; SE 10^5 initial concentration): 0.0454 | OD (600 nm) Mean ([2]; SE 10^6 initial concentration): 0.0611 | OD (600 nm) Mean ([2]; SE 10^7 initial concentration): 0.0971 | Effect on background fungal growth (plate counts and optical density) (C. albicans): reduced the background fungal growth

Cc1cc(C2CCCCC2)n(O)c(=O)c1 [Ciclopirox]
antifungal activity [3]: fungicidal, fungistatic and sporicidal activity | activity against bacteria [4]: effective

L-glutamic acid polymer with L-alanine, L-lysine and L-tyrosine, acetate (salt) [Glatiramer acetate]
inflammation and pathological manifestations of IBD [5]: reduce inflammation and ameliorate the pathological manifestations

O=C(O)CCCCCCCC(=O)O [Azelaic acid]
antibacterial effects [6]: antibacterial effects
